Laboratory results published in article PMC3158291 (Journal of medicinal chemistry, 2011).
Converted amounts (≈) assume the structure as drawn.

What was measured:
[1] = tested on: Mycobacterium tuberculosis (Mtb), replicating; assay: Minimum Inhibitory Concentration; assay type: cell-based; details: for Mtb MIC99 μM (±SD): replicating (aerobic) Mtb, average ± SD of multiple measurements; for MIC99: Mycobacterium tuberculosis, read-out: Mtb MIC99 μM (±SD)
[2] = Stability in mouse liver microsomes; assay type: in vitro ADME; details: calculated from intrinsic clearance in mouse liver microsomes, method of ref 21
[3] = tested on: Mycobacterium tuberculosis (Mtb), non-replicating; assay: Minimum Anaerobicidal Concentration; assay type: cell-based; details: non-replicating (anaerobic) Mtb; average ± SD of multiple measurements
[4] = In vivo pharmacokinetic study, intravenous 5mg/kg; details: mice, intravenous injection at 5mg/kg

Compound	Predicted hepatic extraction ratio [2] [%]	further results
CCC(=O)N(Cc1ccc(OC(F)(F)F)cc1)[C@@H]1COc2nc([N+](=O)[O-])cn2C1 [Compound 4b, (S)-N-(2-Nitro-6,7-dihydro-5H-imidazo[2,1-b][1,3]oxazin-6-yl)-N-(4-trifluoromethoxybenzyl)-propionamide]		Mtb MIC99 μM (±SD) [1]: Insoluble
O=[N+]([O-])c1cn2c(n1)OC[C@@H](NCc1ccc(OC(F)(F)F)cc1F)C2 [Compound 41a, (S)-N-(2-Fluoro-4-(trifluoromethoxy)benzyl)-2-nitro-6,7-dihydro-5H-imidazo[2,1-b][1,3]oxazin-6-amine]	81	MIC99 [1]: 0.13 ± 0.06 µM (≈ 0.0489 µg/mL)
2−((S)−2−Nitro−6,7−dihydro−5H−imidazo[2,1−b][1,3]oxazin−6−ylamino)−2−(4−trifluoromethoxyphenyl)−ethanol [Compound 17i]		Mtb MAC μM (±SD) [3]: 23 ± 6 µM; Mtb MIC99 μM (±SD) [1]: 0.13 ± 0.04 µM
CC(C)N(Cc1ccc(OC(F)(F)F)cc1)[C@@H]1COc2nc([N+](=O)[O-])cn2C1 [Compound 5c, (S)-N-Isopropyl-2-nitro-N-(4-trifluoromethoxybenzyl)-6,7-dihydro-5H-imidazo[2,1-b][1,3]oxazin-6-amine]	95	
O=[N+]([O-])c1cn2c(n1)OC[C@@H](NCc1ccc(OC(F)(F)F)cc1OC1CC1)C2 [Compound 32f, (S)-N-(2-Cyclopropoxy-4-trifluoromethoxybenzyl)-2-nitro-6,7-dihydro-5H-imidazo[2,1-b][1,3]oxazin-6-amine]	87	
O=[N+]([O-])c1cn2c(n1)OC[C@@H](NCc1ccc(OC(F)(F)F)c(Cl)c1)C2 [Compound 56b, (S)-N-(3-Chloro-4-trifluoromethoxybenzyl)-2-nitro-6,7-dihydro-5H-imidazo[2,1-b][1,3]oxazin-6-amine]		in vivo clearance [4]: low to moderate clearance; systemic exposure [4]: good systemic exposure
O=[N+]([O-])c1cn2c(n1)OC[C@@H](NCc1ccc(OC(F)(F)F)c(Oc3ccccc3)c1)C2 [Compound 56e, (S)-2-Nitro-N-(3-phenoxy-4-(trifluoromethoxy)benzyl)-6,7-dihydro-5H-imidazo[2,1-b][1,3]oxazin-6-amine]	87	
O=[N+]([O-])c1cn2c(n1)OC[C@@H](NCc1ccc(OC(F)(F)F)c(O)c1)C2 [Compound 56i, (S)-5-((2-Nitro-6,7-dihydro-5H-imidazo[2,1-b][1,3]oxazin-6-ylamino)methyl)-2-(trifluoromethoxy)-phenol]		in vivo clearance [4]: cleared more rapidly; systemic exposure [4]: low systemic exposure
O=[N+]([O-])c1cn2c(n1)OC[C@@H](NCc1ccc(OC(F)(F)F)cc1OCC1CC1)C2 [Compound 32e, (S)-N-(2-Cyclopropylmethoxy-4-trifluoromethoxybenzyl)-2-nitro-6,7-dihydro-5H-imidazo[2,1-b][1,3]oxazin-6-amine]	97	
O=[N+]([O-])c1cn2c(n1)OC[C@@H](NCc1ccc(OC(F)(F)F)cc1Oc1ccccc1)C2 [Compound 32d, (S)-2-Nitro-N-(2-phenoxy-4-trifluoromethoxybenzyl)-6,7-dihydro-5H-imidazo[2,1-b][1,3]oxazin-6-amine]	90	
O=[N+]([O-])c1cn2c(n1)OC[C@@H](NCc1ccc(OC(F)(F)F)c(F)c1)C2 [Compound 56a, (S)-N-(3-Fluoro-4-trifluoromethoxybenzyl)-2-nitro-6,7-dihydro-5H-imidazo[2,1-b][1,3]oxazin-6-amine]	72	in vivo clearance [4]: low to moderate clearance; systemic exposure [4]: good systemic exposure
O=[N+]([O-])c1cn2c(n1)OC[C@@H](NCc1ccc(OC(F)(F)F)cc1O)C2 [Compound 32g, (S)-2-((2-Nitro-6,7-dihydro-5H-imidazo[2,1-b][1,3]oxazin-6-ylamino)methyl)-5-trifluoromethoxyphenol]	81	
CCCN(Cc1ccc(OC(F)(F)F)cc1)[C@@H]1COc2nc([N+](=O)[O-])cn2C1 [Compound 5b, (S)-2-Nitro-N-propyl-N-(4-trifluoromethoxybenzyl)-6,7-dihydro-5H-imidazo[2,1-b][1,3]oxazin-6-amine]	95	
CN(Cc1ccc(OC(F)(F)F)cc1)[C@@H]1COc2nc([N+](=O)[O-])cn2C1 [Compound 5a, (S)-N-Methyl-2-nitro-N-4-trifluoromethoxybenzyl-6,7-dihydro-5H-imidazo[2,1-b][1,3]oxazin-6-amine]	85	
O=[N+]([O-])c1cn2c(n1)OC[C@@H](NCc1ccc(OC(F)(F)F)cc1Cl)C2 [Compound 41b, (S)-N-(2-Chloro-4-trifluoromethoxybenzyl)-2-nitro-6,7-dihydro-5H-imidazo[2,1-b][1,3]oxazin-6-amine]	75	MIC99 [1]: 0.12 ± 0.05 µM (≈ 0.0471 µg/mL)
